# Measured values published in paper PMC11971462, “Generation and validation of a novel multitarget small molecule in glioblastoma” (Cell Death & Disease, 2025).
# Read-outs that look alike come from different tables or passages of the source.
# Tested on: GNS166 cells
smiles,measurement,setting,value
C#CCN(Cc1cc2cc(OCCCN3CCCCC3)ccc2n1S(=O)(=O)c1ccccc1)C(=O)CCCCCCC(=O)NO [DDI],PCBP3 log2FoldChange,,5.457
same,PCDH15 log2FoldChange,,3.424
same,PCDH19 log2FoldChange,,2.11
same,PCDHA13 log2FoldChange,,3.483
same,PCOLCE2 log2FoldChange,,2.03
same,PCP4L1 log2FoldChange,,4.897
same,PCSK1 log2FoldChange,,3.118
same,PDE2A log2FoldChange,,2.038
same,PDE3A log2FoldChange,,2.332
same,PDE4C log2FoldChange,,2.296
same,PDK4 log2FoldChange,,2.588
same,PDX1 log2FoldChange,,3.554
same,PLA2G4A log2FoldChange,,2.126
same,PLCXD2 log2FoldChange,,2.533
same,PLEK2 log2FoldChange,,2.459
same,PLEKHA6 log2FoldChange,,2.086
same,PLP1 log2FoldChange,,2.506
same,PPM1N log2FoldChange,,2.335
same,PPP1R1B log2FoldChange,,4.39
same,PPP1R16B log2FoldChange,,3.376
same,PPP4R4 log2FoldChange,,3.111
same,PRR29 log2FoldChange,,3.599
same,PRRX2 log2FoldChange,,2.314
same,PRSS3 log2FoldChange,,3.932
same,PSD2 log2FoldChange,,3.562
same,PSG1 log2FoldChange,,5.24
same,PSG4 log2FoldChange,,4.564
same,PSG5 log2FoldChange,,4.838
same,PSG9 log2FoldChange,,3.658
same,PTGS1 log2FoldChange,,4.0843
same,PTPN5 log2FoldChange,,4.236
same,PTPRO log2FoldChange,,3.032
same,PTPRQ log2FoldChange,,3.237
same,QPRT log2FoldChange,,2.003
same,RAB39A log2FoldChange,,2.508
same,RADX log2FoldChange,,2.3792
same,RAET1G log2FoldChange,,2.196
same,RAP1GAP log2FoldChange,,2.521
same,RARB log2FoldChange,,2.002
same,RASD2 log2FoldChange,,3.718
same,RASIP1 log2FoldChange,,2.128
same,RDH12 log2FoldChange,,3.657
same,REM1 log2FoldChange,,2.662
same,RFPL4A log2FoldChange,,5.081
same,RFTN2 log2FoldChange,,4.233
same,RGS9 log2FoldChange,,5.175
same,RIMBP2 log2FoldChange,,6.452
same,RIMS4 log2FoldChange,,5.004
same,RNF165 log2FoldChange,,3.79
same,RUNDC3A log2FoldChange,,4.619
same,S100B log2FoldChange,,3.045
same,SAMD11 log2FoldChange,,4.391
same,SCEL log2FoldChange,,2.003
same,SCIN log2FoldChange,,3.412
same,SCN3A log2FoldChange,,2.697
same,SCN4B log2FoldChange,,2.757
same,SCN5A log2FoldChange,,2.371
same,SCN9A log2FoldChange,,2.594
same,SCUBE1 log2FoldChange,,7.641
same,SEMA3F log2FoldChange,,2.777
same,SEMA5A log2FoldChange,,2.383
same,SERPING1 log2FoldChange,,4.327
same,SERPINI1 log2FoldChange,,3.966
same,SERTM1 log2FoldChange,,2.165
same,SGIP1 log2FoldChange,,2.3607
same,SH2D3C log2FoldChange,,5.237
same,SHANK1 log2FoldChange,,6.717
same,SHF log2FoldChange,,2.222
same,SHISA7 log2FoldChange,,4.7
same,SLC4A5 log2FoldChange,,2.594
same,SLC6A17 log2FoldChange,,2.657
same,SLC7A2 log2FoldChange,,3.19
same,SLC7A10 log2FoldChange,,6.012
same,SLC8A2 log2FoldChange,,4.387
same,SLC9A9 log2FoldChange,,2.124
same,SLC16A12 log2FoldChange,,2.212
same,SLC22A31 log2FoldChange,,5.211
same,SLC25A27 log2FoldChange,,5.956
same,SLC44A3 log2FoldChange,,2.701
same,SLC45A1 log2FoldChange,,2.018
same,SLIT2 log2FoldChange,,2.219
same,SLITRK3 log2FoldChange,,2.145
same,SMPDL3B log2FoldChange,,3.134
same,SNCB log2FoldChange,,4.848
same,SNX22 log2FoldChange,,2.0694
same,SNX32 log2FoldChange,,2.323
same,SOBP log2FoldChange,,2.326
same,SPANXC log2FoldChange,,2.711
same,SPINK2 log2FoldChange,,3.038
same,SPNS2 log2FoldChange,,3.326
same,SSTR2 log2FoldChange,,2.236
same,ST3GAL5 log2FoldChange,,2.386
same,ST6GALNAC3 log2FoldChange,,2.853
same,STAT4 log2FoldChange,,3.605
same,STC1 log2FoldChange,,3.854
same,STMN3 log2FoldChange,,2.874
same,STUM log2FoldChange,,6.45
same,STX1B log2FoldChange,,2.758
same,STXBP5L log2FoldChange,,2.17
same,SYNPO2 log2FoldChange,,2.428
same,SYP log2FoldChange,,4.307
same,SYT2 log2FoldChange,,5.115
same,SYT5 log2FoldChange,,6.667
same,SYT13 log2FoldChange,,2.882
same,SYTL3 log2FoldChange,,2.536
same,TAGLN3 log2FoldChange,,3.305
same,TBC1D8B log2FoldChange,,2.1255
same,TCEAL5 log2FoldChange,,4.062
same,TCIM log2FoldChange,,3.258
same,TEC log2FoldChange,,4.937
same,TEKT3 log2FoldChange,,2.698
same,TESC log2FoldChange,,5.269
same,TEX19 log2FoldChange,,3.325
same,THSD7B log2FoldChange,,3.117
same,TJP3 log2FoldChange,,5.915
same,TLCD3B log2FoldChange,,2.485
same,TLR9 log2FoldChange,,2.809
same,TLX2 log2FoldChange,,2.462
same,TMEM47 log2FoldChange,,2.003
same,TMEM74B log2FoldChange,,3.647
same,TMEM74 log2FoldChange,,4.084
same,TMEM92 log2FoldChange,,3.463
same,TMEM139 log2FoldChange,,3.161
same,TMEM145 log2FoldChange,,3.464
same,TMEM151B log2FoldChange,,3.192
same,TMEM156 log2FoldChange,,3.7131
same,TMOD1 log2FoldChange,,2.144
same,TNFSF18 log2FoldChange,,2.976
same,TNNI3 log2FoldChange,,7.061
same,TRPC4 log2FoldChange,,3.104
same,TTYH1 log2FoldChange,,4.78
same,TUBA3C log2FoldChange,,6.251
same,TUSC3 log2FoldChange,,3.3304
same,UNC5B log2FoldChange,,3.5878
same,USH1G log2FoldChange,,7.012
same,VAV3 log2FoldChange,,2.016
same,VGLL2 log2FoldChange,,2.35
same,VTCN1 log2FoldChange,,4.133
same,VWA1 log2FoldChange,,2.457
same,WNT2B log2FoldChange,,2.031
same,WNT10B log2FoldChange,,3.628
same,WSCD1 log2FoldChange,,2.865
same,XYLT1 log2FoldChange,,5.474
same,YPEL4 log2FoldChange,,2.644
same,ZCCHC12 log2FoldChange,,2.836
same,ZDHHC11B log2FoldChange,,2.194
same,ZDHHC22 log2FoldChange,,3.089
same,ZFP92 log2FoldChange,,2.85
same,ZMYND10 log2FoldChange,,2.335
same,ZNF208 log2FoldChange,,3.37
same,Direction,gene ALOX15B,Up
same,Direction,gene AMBN,Up
same,Direction,gene APELA,Up
same,Direction,gene ATP2B3,Up
same,Direction,gene B3GALT5,Up
same,Direction,gene BCL11B,Up
same,Direction,gene BRS3,Up
same,Direction,gene CA4,Up
same,Direction,gene CA7,Up
same,Direction,gene CAPNS2,Up
same,Direction,gene CCN5,Up
same,Direction,gene CD1D,Up
same,Direction,gene CDC20B,Up
same,Direction,gene CELF4,Up
same,Direction,gene CES1,Up
same,Direction,gene CFAP52,Up
same,Direction,gene CHRNA3,Up
same,Direction,gene CRB1,Up
same,Direction,gene CSAG1,Up
same,Direction,gene CSDC2,Up
same,Direction,gene CUX2,Up
same,Direction,gene CXorf51A,Up
same,Direction,gene DES,Up
same,Direction,gene DGKK,Up
same,Direction,gene EBF2,Up
same,Direction,gene EREG,Up
same,Direction,gene FAM9C,Up
same,Direction,gene FAM166A,Up
same,Direction,gene FER1L5,Up
same,Direction,gene FGD3,Up
same,Direction,gene FRG2,Up
same,Direction,gene FRMD7,Up
same,Direction,gene GAS7,Up
same,Direction,gene GMNC,Up
same,Direction,gene GOLGA8F,Up
same,Direction,gene GREM2,Up
same,Direction,gene GUCY2F,Up
same,Direction,gene HOXC13,Up
same,Direction,gene IBSP,Up
same,Direction,gene IRAG1,Up
same,Direction,gene IRF6,Up
same,Direction,gene KANK3,Up
same,Direction,gene KCNA1,Up
same,Direction,gene KCNH6,Up
same,Direction,gene KCNK5,Up
same,Direction,gene KCNK15,Up
same,Direction,gene KCNN2,Up
same,Direction,gene KCNQ1,Up
same,Direction,gene LHFPL1,Up
same,Direction,gene LHX5,Up
same,Direction,gene LOC102723623,Up
same,Direction,gene LRRC15,Up
same,Direction,gene MAGEA2,Up
same,Direction,gene MAGEA2B,Up
same,Direction,gene MAGEA6,Up
same,Direction,gene MAPK15,Up
same,Direction,gene ME1,Up
same,Direction,gene MEIOSIN,Up
same,Direction,gene MMEL1,Up
same,Direction,gene MMP12,Up
same,Direction,gene MYL2,Up
same,Direction,gene NOS3,Up
same,Direction,gene NTRK1,Up
same,Direction,gene PAGE4,Up
same,Direction,gene PAX2,Up
same,Direction,gene PCDHA1,Up
same,Direction,gene PITX3,Up
same,Direction,gene PLAC1,Up
same,Direction,gene PLK5,Up
same,Direction,gene PLXDC1,Up
same,Direction,gene PNLIPRP3,Up
same,Direction,gene POU3F4,Up
same,Direction,gene PSG6,Up
same,Direction,gene PTPRN,Up
same,Direction,gene RPRML,Up
same,Direction,gene RSPO1,Up
same,Direction,gene SCN4A,Up
same,Direction,gene SCRT1,Up
same,Direction,gene SH2D3A,Up
same,Direction,gene SHH,Up
same,Direction,gene SIDT1,Up
same,Direction,gene SLC4A9,Up
same,Direction,gene SLC11A1,Up
same,Direction,gene SLC18A1,Up
same,Direction,gene SLC19A3,Up
same,Direction,gene SLC35F3,Up
same,Direction,gene SLC36A2,Up
same,Direction,gene STMN4,Up
same,Direction,gene STRC,Up
same,Direction,gene SYT1,Up
same,Direction,gene TAC3,Up
same,Direction,gene TMEM196,Up
same,Direction,gene TNIP3,Up
same,Direction,gene TSPAN18,Up
same,Direction,gene TTC9B,Up
same,Direction,gene UGT3A1,Up
same,Direction,gene UNC5A,Up
same,Direction,gene VWA3B,Up
same,Direction,gene ZBBX,Up
same,Direction,gene ZNF479,Up
